Data published in US8900600B2, “Identification, optimization and use of cryptic HLA-A24 epitopes for immunotherapy” (VAXON Biotech, priority 2009, dated 2014).

Columns and labels:
[1] = system: HLA-A*2402 transgenic mice; test: CTL induction in vivo in HLA-A*2402 transgenic mice (immunogenicity, Cr51 cytotoxic assay); design: key to Immunogenicity: (−) means that none of the mice vaccinated with the corresponding native peptides develops a specific immune response; (+) that less to 50% of vaccinated mice responded; (++) that more that 50% responded; key to Immunogenicity (class): −: (-) means that none of the mice vaccinated with the corresponding native peptides develops a specific immune response; (+) that less to 50% of vaccinated mice responded; (++) that more that 50% responded; conditions: for Immunogenicity (X/Y): X mice develop a specific response for a total of Y mice vaccinated / Immunogenicity (class): Table 7, mice vaccinated with the native or modified peptide; for Immunogenicity (class): share of mice responding; for Immunogenicity: Table 5, mice vaccinated with 100 μg native peptide in IFA, share of mice with specific immune response
Experimental: FIG. 1: Panels 1A-1F of FIG. 1 show immunogenicity of HLA-A*2402 cryptic peptides. HLA-A*2402 transgenic mice were vaccinated with the cryptic peptides following the described protocol and generated CTL were tested against T2-A24 targets loaded with peptide as indicated (NR non relevant peptide). Percentage of specific lysis was determined as: Lysis=(Experimental Release−Spontaneous Release)/(Maximal Release−Spontaneous Release)×100. Four CTL dilutions, corresponding to four CTL/target cells ratio were tested.
(§1) The transgenic mice used in the described experiments were obtained by crossing HLA-A24 transgenic mice previously described (Barra et al., 1993) and H2 Kb^− H2 Db^− knock out mice, transgenic for both human β2 microglobulin and CD8α chain (Perarnau et al., 1999).
Mice were injected subcutaneously with 100 μg of peptide emulsified in Incomplete Freund's Adjuvant (IFA) in the presence of 150 μg of the I-A^b restricted HBVcore128 T helper epitope (TPPAYRPPNAPIL, SEQ ID NO: 112). After 15 days, 5×10^7 spleen cells were stimulated twice in vitro with peptide (10 μM), at 6 days interval. On day 13 of culture, the bulk responder populations were tested for specific cytotoxicity against target cells expressing HLA-A*2402 and loaded with the same peptide.
(§2) Targets were labelled with 100 μCi of Cr^51 for 60 min, plated in 96-well V-bottomed plates (3×10^3 cell/well in 100 μL of RPMI 1640 medium) and, when necessary, pulsed with optimized or native peptides (1 μM) at 37° C. for 2 hours. Four dilutions of effector cells were then added in the wells and incubated at 37° C. for 4 hours. Percentage of specific lysis was determined as: Lysis=(Experimental Release−Spontaneous Release)/(Maximal Release−Spontaneous Release)×100.

[2] = system: HLA-A*2402 transgenic mice; test: Cross-recognition assay: CTL from mice vaccinated with optimized peptide tested on targets loaded with native peptide; assay type: in vivo; conditions: Table 7, CTL of mice vaccinated with the optimized peptide
Experimental: FIG. 2: Panels 2A-2F of FIG. 2 show immunogenicity of HLA-A*2402 restricted optimized cryptic peptides. HLA-A*2402 transgenic mice were vaccinated with the optimized peptide following the described protocol and generated CTL were tested against T2-A24 targets loaded with the optimized (immunogenicity), the corresponding native (native peptide cross recognition) or an irrelevant (NR) peptide as indicated. Percentage of specific lysis was determined as: Lysis=(Experimental Release−Spontaneous Release)/(Maximal Release−Spontaneous Release)×100. Four CTL dilutions, corresponding to four CTL/target cells ratio were tested.
as §1
Mice were injected subcutaneously with 100 μg of optimized peptide emulsified in Incomplete Freund's Adjuvant (IFA) in the presence of 150 μg of the I-A^b restricted HBVcore128 T helper epitope (TPPAYRPPNAPIL, SEQ ID NO: 112). After 15 days, 5×10^7 spleen cells were stimulated firstly in vitro with the optimized peptide (10 μM), and secondly on day 6 of culture with the corresponding native peptide. On day 13, the bulk responder populations were tested for specific cytotoxicity against targets cells expressing HLA-A*2402 and loaded with the optimized, the native or an irrelevant peptide.
as §2

[3] = biological target: HLA-A*2402 (Homo sapiens, UniProt P04439, D101N/D140Y/D185E/E176V/E190D/F33S/G103R/G107R/I119L/I121M/I306V/K335N/L105A/L180Q/L300P/N151K/N90K/Q86E/Q94H/R106L/R138H/R89G/T104I/T345S/V100E/W191G/Y123F); test: Measurement of peptide relative affinity to HLA-A*2402 (surface expression on T2-A24 cells); assay type: cell-based; conditions: for RA (Relative Affinity): T2-A24 cells, 16 hours at 37° C., relative to reference peptide standard A24, concentration inducing 30% of HLA-A*2402 expression
Experimental: Measurement of Peptide Relative Affinity to HLA-A*2402.
The protocol used has been described previously (Rohrlich et al., 2003). Briefly, T2-A24 cells were incubated at 37° C. for 16 hours with peptides concentrations ranging from 100 μM to 0.1 μM, and then stained with 0041HA monoclonal antibody (mAb)(One Lambda, Inc.) to quantify the surface expression of HLA-A*2402. For each peptide concentration, the HLA-A*2402 specific staining was calculated as the percentage of staining obtained with 100 μM of the reference peptide standard A24 (AYIDNYNKF, SEQ ID NO: 111). The relative affinity (RA) was determined as: RA=(Concentration of each peptide that induces 30% of HLA-A*2402-expression/Concentration of the reference peptide that induces 30% of HLA-A*2402 expression).

Sequence	Immunogenicity (X/Y): X mice develop a specific response for a total of Y mice vaccinated [1]	Immunogenicity (class) [1]	Immunogenicity in HLA-A24 transgenic mice (in words) [1]	Immunogenicity [1]	Native peptide cross recognition (X/Y): X mice develop a specific response for a total of Y mice vaccinated [2]	Native peptide cross recognition (class) [2]	Binding to HLA-A*2402 (in words) [3]	RA (Relative Affinity) [3]
RYNYLSTDL (Optimized peptide derived from cryptic peptides of SEQ ID Nos 1 to 9) [Her2/neu 300 R1L9, modified peptide]	0/9	−						
PYVSRLLGI (Cryptic HLA-A2402 restricted peptide) [Her2/neu 780, native cryptic HLA-A*2402 restricted peptide]	0/8	−	non immunogenic	−	3/9	+ ((+) that less to 50% of vaccinated mice responded)	strongly binds	
RYEFLWGPL (Optimized peptide derived from cryptic peptides of SEQ ID Nos 1 to 9) [MAGE 261 L9, modified peptide]	0/9	−						
PYGVLLKTH (Cryptic HLA-A2402 restricted peptide) [TERT 403, native cryptic HLA-A*2402 restricted peptide]	0/3	−		−	3/15	+ ((+) that less to 50% of vaccinated mice responded)		− ((−) means RA > 100)
PYMRQFVAH (Cryptic HLA-A2402 restricted peptide) [TERT 770, native cryptic HLA-A*2402 restricted peptide]	0/3	−		−	5/18	+ ((+) that less to 50% of vaccinated mice responded)		+/− ((+/−) 10 < RA < 100)
RYLVQVQAL (Optimized peptide derived from cryptic peptides of SEQ ID Nos 1 to 9) [EphA2 502 R1]	3/3	++ ((++) that more that 50% responded)	developed peptide specific CTLs					
RYWELSNHL (Optimized peptide derived from cryptic peptides of SEQ ID Nos 1 to 9) [EphA2 817 R1L9]	2/3	++ ((++) that more that 50% responded)	developed peptide specific CTLs					
PYNYLSTDV (Cryptic HLA-A2402 restricted peptide) [Her2/neu 300, native cryptic HLA-A*2402 restricted peptide]	0/3	−		−				− ((−) means RA > 100)
RYMRQFVAL (Optimized peptide derived from cryptic peptides of SEQ ID Nos 1 to 9) [TERT 770 R1L9]	12/18	++ ((++) that more that 50% responded)	developed peptide specific CTLs					
PYGKGWDLM (Cryptic HLA-A2402 restricted peptide) [EphA2 47, native cryptic HLA-A*2402 restricted peptide]	0/6	−		−	7/9	++ ((++) that more that 50% responded)		
RYDGIPARL (Optimized peptide derived from cryptic peptides of SEQ ID Nos 1 to 9) [Her2/neu 922 R1L9, modified peptide]	0/9	−						
KYGVLLKTL (Optimized peptide derived from cryptic peptides of SEQ ID Nos 1 to 9) [TERT 403 K1L9]	4/15	+ ((+) that less to 50% of vaccinated mice responded)	developed peptide specific CTLs					
RYGKGWDLL (Optimized peptide derived from cryptic peptides of SEQ ID Nos 1 to 9) [EphA2 47 R1L9]	7/9	++ ((++) that more that 50% responded)	developed peptide specific CTLs					
RYVSRLLGI (Optimized peptide derived from cryptic peptides of SEQ ID Nos 1 to 9) [HER 780 R1]	4/9	+ ((+) that less to 50% of vaccinated mice responded)	developed peptide specific CTLs					
PYDGIPARE (Cryptic HLA-A2402 restricted peptide) [Her2/neu 922, native cryptic HLA-A*2402 restricted peptide]								− ((−) means RA > 100)
TYLVQVQAL (Cryptic HLA-A2402 restricted peptide) [EphA2 502, native cryptic HLA-A*2402 restricted peptide]	0/3	−		−	2/3	++ ((++) that more that 50% responded)		
PYWELSNHE (Cryptic HLA-A2402 restricted peptide) [EphA2 817, native cryptic HLA-A*2402 restricted peptide]	0/3	−		−	2/3	++ ((++) that more that 50% responded)		
PYGCLLDHV (Cryptic HLA-A2402 restricted peptide) [Her2/neu 802]			immunogenic	++ ((++) that more that 50% responded)			binds to the HLA-A*2402	+ ((+) 5 < RA < 10)
RYEFLWGPR (Cryptic HLA-A2402 restricted peptide) [MAGE 261, native cryptic HLA-A*2402 restricted peptide]	0/3	−		−				− ((−) means RA > 100)
